According to patent US20190336504A1, “TREATMENT AND PREVENTION OF CYTOKINE RELEASE SYNDROME USING A CHIMERIC ANTIGEN RECEPTOR IN COMBINATION WITH A KINASE INHIBITOR” (Novartis AG, priority 2016, published 2019):
Like-named read-outs stand apart in the source and are kept apart here.

Columns and labels:
primary MCL cells [1] = type: in vivo, NOD-SCID gamma-chain deficient mice (NSG)
Experimental: This example describes the development of such a model generated by intravenously injecting NOD-SCID gamma-chain deficient mice (NSG) with primary MCL cells collected from a patient with relapsed MCL (FIG. 3A). NOD SCID Gamma-chain deficient mice were injected with 2×10^6 primary MCL cells intravenously. […] Mice were then followed up for clinical signs, T cell engraftment, tumor burden and survival.
NOD SCID Gamma-chain deficient mice were injected with 2×10^6 primary MCL cells intravenously. […] Mice were then followed up for clinical signs, T cell engraftment, tumor burden and survival. […] See, e.g., Ruella et al. Clin Cancer Res 2016; 10.1158/1078-0432.CCR-15-1527.

B cell neoplasms = type: in vivo, mice
Description: For FIGS. 3C-3E, all graphs were representative of two independent experiments (5 mice per group). Student's t-test was used to compare two groups. Survival curves were compared using the log-rank test. Asterisks represent p-values (*=<0.05, **=<0.01, ***=<0.001, ****=<0.0001) and “ns” means “not significant” (p>0.05).
(§1) All graphs in FIGS. 4B-4F are representative of two independent experiments (5 mice per group). Student's t-test was used to compare two groups; in analysis where multiple groups were compared, one-way analysis of variance (ANOVA) was performed with Holm-Sidak correction for multiple comparisons. Survival curves were compared using the log-rank test. Asterisks represent p-values (*=<0.05, **=<0.01, ***=<0.001, ****=<0.0001) and “ns” means “not significant” (p>0.05).

primary MCL cells [2] = experiment: Cytokine production of primary MCL cells incubated for 24 hours with ibrutinib; type: cell-based; conditions: FIG. 4F
Experimental: as §1

primary AML blasts = type: in vivo
Experimental: For the development of CRS preclinical models, NOD-SCID-γ chain−/− (NSG) transgenic for human interleukin-3, stem cell factor and granulocyte macrophage colony-stimulating factor (NSG-S) were used. These were purchased from the Stem Cell and Xenograft Core of the University of Pennsylvania (originally obtained from Jackson Laboratories). Schemas of the utilized xenograft models are discussed in detail in the relevant figures and the Results section herein. Cells were injected in 200 ul of phosphate-buffered saline at the indicated concentration into the tail veins.
Ruxolitinib was purchased from Selleckchem, dissolved in DMSO and diluted to the indicated concentrations. […] Blood. […] Blood. […] Blood. 2016.
See, e.g., Gill S, Tasian S K, Ruella M, et al. Preclinical targeting of human acute myeloid leukemia and myeloablation using chimeric antigen receptor-modified T cells. Blood. 2014; 123:2343-2354. In particular, NSG-S mice were engrafted with primary AML blasts (5×10^6) and bled after 2-4 weeks to confirm engraftment. Mice then were treated with high doses of CART123 1×10^6 by intravenous tail vein single injection and monitored with serial clinical examinations, weight recording and retro-orbital bleedings for leukemia burden assessment and cytokine analysis. […] (CART123 were injected on day 41 post AML injection in the experiment.)
The experiments in this Example investigated ruxolitinib as a modality to prevent or reduce CRS severity after CART123 in the AML xenograft model described herein. NSGS mice were engrafted with primary AML blasts (5×10^6) and bled after 2-4 weeks to confirm peripheral blood engraftment. NSGS mice bearing primary AML were treated with CART123 (1×10^6) by intravenous tail vein single injection along with ruxolitinib or vehicle control. The mice were randomized to receive different doses of ruxolitinib (30 mg/kg, 60 mg/kg or 90 mg/kg) or vehicle by oral gavage twice a day. Treatment started on the day of CART123 injection and continued for a week (FIG. 2A). Mice were then monitored with serial clinical examinations, weight recording, retro-orbital bleedings for leukemia burden assessment and cytokine analysis and followed for survival.

AML = conditions: summary statement

C=CC(=O)N1CCC[C@@H](n2nc(-c3ccc(Oc4ccccc4)cc3)c3c(N)ncnc32)C1 [ibrutinib, 1-[(3R)-3-[4-Amino-3-(4-phenoxyphenyl)-1H-pyrazolo[3,4-d]pyrimidin-1-yl]piperidin-1-yl]prop-2-en-1-one]
overall survival (OS) (primary MCL cells [1]; CART19 + ibrutinib 125 mg/Kg/day in drinking water vs CART19 alone): prolonged overall survival | CART19 expansion in the PB (primary MCL cells [1]; CART19 + ibrutinib vs CART19 alone): augmented | cytokines in the peripheral blood (IL-6, IFNg, TNFα, IL-2, GM-CSF) (primary MCL cells [1]; day 4, ibrutinib-treated mice): significantly reduced | T cell expansion (B cell neoplasms; CART19-treated mice, ibrutinib or vehicle treatment, FIG. 4D): augmented | CRS after a CD19 CAR therapy (B cell neoplasms; CD19 CAR therapy for B cell neoplasms, summary statement): improve or prevent CRS | serum cytokines involved in CRS (Luminex) (B cell neoplasms; mice treated with CART19+ibrutinib vs CART19, FIG. 4E): significant reduction | overall survival (B cell neoplasms; mice treated with CART19 plus ibrutinib (vs CART19 plus vehicle), FIG. 4B, log-rank test): significantly increased | cytokine production (primary MCL cells [2]): significant cytokine production in a dose-dependent manner

N#CC[C@H](C1CCCC1)n1cc(-c2ncnc3[nH]ccc23)cn1 [ruxolitinib, (3R)-3-cyclopentyl-3-[4-(7H-pyrrolo[2,3-d]pyrimidin-4-yl)pyrazol-1-yl]propanenitrile]
leukemia in peripheral blood of surviving mice (primary AML blasts; 70 days post AML injection, live human CD45 positive cells): all surviving mice had eradication of leukemia | anti-leukemic effect (primary AML blasts; all groups: CART123 + ruxolitinib 30, 60 or 90 mg/kg or vehicle): equivalent anti-leukemic effect | T cell expansion in the peripheral blood (primary AML blasts; ruxolitinib 60 mg/kg + CART123): blunted T cell expansion | leukemia burden (primary AML blasts; ruxolitinib 60 mg/kg + CART123): leukemia eradication | levels of inflammatory cytokines (primary AML blasts; ruxolitinib 60 mg/kg + CART123): reduced levels of inflammatory cytokines | weight loss (primary AML blasts; ruxolitinib 60 mg/kg + CART123): transient weight loss | survival (primary AML blasts; ruxolitinib 60 mg/kg + high dose CART123): long-term disease free survival | clinical illness (CRS) manifested by weight loss (primary AML blasts; ruxolitinib 60 mg/kg oral gavage twice a day for a week + CART123, vs CART123 alone or + 30 mg/kg): less severe clinical illness | clinical illness (CRS) manifested by weight loss (primary AML blasts; ruxolitinib 90 mg/kg oral gavage twice a day for a week + CART123, vs CART123 alone or + 30 mg/kg): less severe clinical illness | direct anti-tumor activity (primary AML blasts; ruxolitinib with CART123): no direct anti-tumor activity | effect on anti-tumor activity of CART123 (primary AML blasts; ruxolitinib with CART123): did not impair | cytokine release syndrome (CRS) after CART cell therapy (AML; CART cell therapy for hematological cancers, such as AML): ameliorate cytokine release syndrome (CRS) severity or prevent CRS | anti-tumor effect of the CART therapy (AML; combination with JAK-STAT kinase inhibitor): without significantly impairing
